Assays:
HIV protease [1] = biological target: T1, HIV protease (Human immunodeficiency virus type 1 group M subtype B, UniProt P12497); assay: Assay for Inhibition of Microbial Expressed HIV Protease (peptide substrate cleavage, HPLC); assay type: biochemical; settings: for % inhibition: concentration not given; for % inhibition / IC50: pH 5.5, 30° C., 1 hour
T1 construct: made in house; host or cells: Escherichia coli
Description: Assay for Inhibition of Microbial Expressed HIV Protease
Inhibition studies of the reaction of the protease expressed in Eschericia coli with a peptide substrate [Val-Ser-Gln-Asn-(betanapthyl)Ala-Pro-Ile-Val, 0.5 mg/mL at the time the reaction is initiated] were in 50 mM Na acetate, pH 5.5, at 30° C. for 1 hour. Various concentrations of inhibitor in 1.0 μl DMSO were added to 25 μl of the peptide solution in water. The reaction is initiated by the addition of 15 μl of 0.33 nM protease (0.11 ng) in a solution of 0.133M Na acetate pH 5.5 and 0.1% bovine serum albumin. The reaction was quenched with 160 μl of 5% phosphoric acid. Products of the reaction were separated by HPLC (VYDAC wide pore 5 cm C-18 reverse phase, acetonitrile gradient, 0.1% phosphoric acid). The extent of inhibition of the reaction was determined from the peak heights of the products. […] [drawing 61] 5(RS)-((4')-2"-furanyl)methylpheny-9(RS)-hydroxy-1(RS)-hydroxy-methyl-3-(2' -methylpropyl-3-azabicyclo[3.3.1]nonan-7-one (Compound 10, Table 1) [drawing 62]

HIV protease [2] = biological target: T1, HIV protease; assay: as above; assay type: biochemical; settings: concentration printed as (8.8) μM (column head 'Enzyme concentration (μM)'); pH 5.5, 30° C., 1 hour

Question: `CC(C)CCN1CC2(CO)CC(=O)CC(Cc3ccccc3)(C1)C2O` (stereo not shown) [Compound 8] was tested. Which “% inhibition” value (HIV protease [1]) did it give?
Answer: 68%

Question: `CC(C)CN1CC2(CO)CC(=O)CC(Cc3ccc(-c4ccco4)cc3)(C1)C2O` (stereo not shown) [Compound 10] was tested. Which inhibition at 100 µM (HIV protease [1]; pH 5.5) did it give?
Answer: 62%

Question: What does the source list for `O=C1CC2(Cc3ccccc3)CN(Cc3ccccc3)CC(C(O)CN3CCCCS3(=O)=O)(C1)C2O` (stereo not shown) [Compound 23]?
Answer: inhibition at 100 µM (HIV protease [1]; pH 5.5): 69%; IC50 (HIV protease [1]): 29 µM

Question: How did the inhibition at 100 µM (HIV protease [1]; pH 5.5) turn out when `CC(C)(C)N1CC2(CO)CC(=O)CC(Cc3ccc4ccccc4c3)(C1)C2O` (stereo not shown) [Compound 12] was run?
Answer: 43%

Question: With `CC(C)(C)CN1CC2(CO)CC(=O)CC(Cc3ccccc3)(C1)C2O` (stereo not shown) [Compound 3] as the compound, how does the inhibition at 250 µM (HIV protease [1]; pH 5.5) read?
Answer: 69%

Question: `CC(C)(C)N1CC2(CO)CC(=O)CC(Cc3ccccc3Br)(C1)C2O` (stereo not shown) [Compound 11] was tested. Which inhibition at 100 µM (HIV protease [1]; pH 5.5) did it give?
Answer: 76%

Question: And the IC50 (HIV protease [1])?
Answer: 30 µM

Question: How did the inhibition at 50 µM (HIV protease [1]; pH 5.5) turn out when `CC(C)(C)N1CC2(Cc3ccccc3)CC(=O)CC(C(O)Cc3ccccc3)(C1)C2O` (stereo not shown) [Compound 19] was run?
Answer: 44%

Question: What does the source list for `CC(C)CN1CC2(Cc3ccccc3)CC(=O)CC(C(O)Cc3ccccc3)(C1)C2O` (stereo not drawn) [Compound 16, 5(RS)-methylphenyl-9(RS)-hydroxy-1(RS)-((1'-hydroxy)-2'-phenyl)-ethyl-3-(2"-methyl)propyl-3-azabicyclo[3.3.1] nonan-7-one]?
Answer: IC50 (HIV protease [1]): 50 µM; % inhibition (HIV protease [2]): 82%

Question: `O=C1CC2(CO)CN(CC3CCCC3)CC(Cc3ccccc3)(C1)C2O` (stereo not shown) [Compound 9] was tested. Which IC50 (HIV protease [1]) did it give?
Answer: 89 µM

Question: Which “% inhibition” value (HIV protease [1]) does the source give for `CC(C)C[C@H](CO)CN1CC2(CO)CC(=O)CC(Cc3ccccc3)(C1)C2O` (stereo partly shown) [Compound 14] here?
Answer: 62%

Question: Which inhibition at 50 µM (HIV protease [1]; pH 5.5) does the source give for `O=C1CC2(Cc3ccccc3)CN(Cc3ccccc3)CC(C(O)C#Cc3ccccc3)(C1)C2O` (stereo not shown) [Compound 17] here?
Answer: 52%

Question: Which inhibition at 250 µM (HIV protease [1]; pH 5.5) does the source give for `O=C1CC2(CO)CN(CC3CC3)CC(Cc3ccccc3)(C1)C2O` (stereo not shown) [Compound 2] here?
Answer: 56%

Question: Which inhibition at 250 µM (HIV protease [1]; pH 5.5) does the source give for `O=C1CC2(CO)CN(Cc3ccccc3)CC(Cc3ccccc3)(C1)C2O` (stereo not shown) [Compound 4] here?
Answer: 82%

Question: What does the source list for `CC(C)CN1CC2(Cc3ccccc3)CC(=O)CC(C(O)Cc3ccccc3N)(C1)C2O` (stereo not shown) [Compound 20]?
Answer: inhibition at 100 µM (HIV protease [1]; pH 5.5): 93%; IC50 (HIV protease [1]): 1.6 µM

Question: For `O=C1CC2(Cc3ccccc3)CN(Cc3ccccc3)CC(C(O)Cc3ccccc3)(C1)C2O` (stereo not drawn) [Compound 18, 5(RS)-methylpheny-9(RS)-hydroxy-1(RS)-((1'-hydroxy)-2'-phenyl)-ethyl-3-benzyl-3-azabicyclo[3.3.1]nonan-7-one], which inhibition at 50 µM (HIV protease [1]; pH 5.5) is on record?
Answer: 63%

Question: `CC(C)CN1CC2(CO)CC(=O)CC(Cc3ccc(Br)cc3)(C1)C2O` (stereo not shown) [Compound 6] was tested. Which inhibition at 250 µM (HIV protease [1]; pH 5.5) did it give?
Answer: 71%

Question: What about the IC50 (HIV protease [1]) of the same compound?
Answer: 244 µM

Question: What does the source list for `O=C1CC2(Cc3ccccc3)CN(CC3CCCO3)CC(C(O)Cc3ccccc3)(C1)C2O` (stereo not shown) [Compound 22]?
Answer: inhibition at 100 µM (HIV protease [1]; pH 5.5): 84%; IC50 (HIV protease [1]): 10.4 µM

Question: How did the inhibition at 25 µM (HIV protease [1]; pH 5.5) turn out when `O=C1CC2(Cc3ccccc3)CN(CC3CCCC3)CC(C(O)Cc3ccccc3)(C1)C2O` (stereo not shown) [Compound 21] was run?
Answer: 80%

Question: And the IC50 (HIV protease [1])?
Answer: 1.8 µM

Question: Which results are given for `CC(C)C[C@@H](CO)CN1CC2(CO)CC(=O)CC(Cc3ccccc3)(C1)C2O` (stereo partly shown) [Compound 13]?
Answer: % inhibition (HIV protease [1]): 75%; IC50 (HIV protease [1]): 44 µM

Question: Which results are given for `CCCCC(O)C12CC(=O)CC(Cc3ccccc3)(CN(CC(C)C)C1)C2O` (stereo not shown) [Compound 15]?
Answer: inhibition at 100 µM (HIV protease [1]; pH 5.5): 73%; IC50 (HIV protease [1]): 14 µM

Question: Which inhibition at 250 µM (HIV protease [1]; pH 5.5) does the source give for `CC(C)CN1CC2(CO)CC(=O)CC(Cc3ccccc3)(C1)C2O` (stereo not shown) [Compound 5] here?
Answer: 63%

Question: For `COc1ccccc1-c1ccc(CC23CC(=O)CC(CO)(CN(CC(C)C)C2)C3O)cc1` (stereo not shown) [Compound 7], which inhibition at 100 µM (HIV protease [1]; pH 5.5) is on record?
Answer: 56%

Reference: patent US5846978A, “HIV protease inhibitors useful for the treatment of AIDS” (Merck & Co., Inc., priority 1997, dated 1998)
